ChEMBL document CHEMBL2074553, “Characterization of bile acid transport mediated by multidrug resistance associated protein 2 and bile salt export pump” (Biochim Biophys Acta, 2001)
Structures can show the parent of a compound that is named as a salt.

T1: Bile salt export pump (Rattus norvegicus, UniProt O70127)
T1 sequence (O70127 whole entry): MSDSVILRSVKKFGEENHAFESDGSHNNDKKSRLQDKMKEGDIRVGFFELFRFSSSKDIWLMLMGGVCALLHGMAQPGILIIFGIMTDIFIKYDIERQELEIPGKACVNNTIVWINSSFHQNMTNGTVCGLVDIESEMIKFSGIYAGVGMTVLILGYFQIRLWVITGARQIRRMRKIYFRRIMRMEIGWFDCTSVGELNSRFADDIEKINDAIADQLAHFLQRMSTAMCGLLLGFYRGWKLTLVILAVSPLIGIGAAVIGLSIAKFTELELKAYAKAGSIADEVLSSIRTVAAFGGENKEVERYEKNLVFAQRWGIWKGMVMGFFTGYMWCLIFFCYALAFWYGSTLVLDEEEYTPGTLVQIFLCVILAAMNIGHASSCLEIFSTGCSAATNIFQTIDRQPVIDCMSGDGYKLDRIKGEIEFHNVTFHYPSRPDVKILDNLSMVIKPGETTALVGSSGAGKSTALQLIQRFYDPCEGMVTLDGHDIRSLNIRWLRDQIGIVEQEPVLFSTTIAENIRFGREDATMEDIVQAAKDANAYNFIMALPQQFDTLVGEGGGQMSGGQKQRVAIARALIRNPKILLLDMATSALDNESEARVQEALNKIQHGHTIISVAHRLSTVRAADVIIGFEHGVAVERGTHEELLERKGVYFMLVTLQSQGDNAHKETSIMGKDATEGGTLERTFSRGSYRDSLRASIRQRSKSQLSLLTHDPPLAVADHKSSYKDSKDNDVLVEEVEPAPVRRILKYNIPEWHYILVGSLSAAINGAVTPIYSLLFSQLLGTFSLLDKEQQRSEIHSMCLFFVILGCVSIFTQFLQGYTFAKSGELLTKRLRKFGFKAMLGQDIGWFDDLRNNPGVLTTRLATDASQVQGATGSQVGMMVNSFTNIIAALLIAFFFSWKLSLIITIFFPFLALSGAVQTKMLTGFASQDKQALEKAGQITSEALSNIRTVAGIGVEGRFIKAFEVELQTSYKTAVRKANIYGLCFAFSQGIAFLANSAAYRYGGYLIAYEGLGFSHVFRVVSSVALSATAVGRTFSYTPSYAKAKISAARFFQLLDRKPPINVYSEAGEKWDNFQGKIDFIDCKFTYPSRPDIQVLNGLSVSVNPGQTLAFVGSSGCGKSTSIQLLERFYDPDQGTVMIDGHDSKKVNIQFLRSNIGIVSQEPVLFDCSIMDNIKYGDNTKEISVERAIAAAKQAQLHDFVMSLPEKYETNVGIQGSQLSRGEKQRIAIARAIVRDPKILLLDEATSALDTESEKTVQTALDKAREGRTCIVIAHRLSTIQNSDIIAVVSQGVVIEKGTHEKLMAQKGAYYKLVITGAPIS


How the values were obtained:
[1] = molecular target: T1, Bile salt export pump; test: TP_TRANSPORTER: inhibition of Taurocholate uptake (Taurocholate: 1 uM) in canalicular membrane vesicles from SD rat; format: functional, cell membranes, Sprague-Dawley, Canalicular membrane vesicle
[2] = molecular target: T1, Bile salt export pump; test: TP_TRANSPORTER: inhibition of Taurocholate uptake (Taurocholate: 1 uM) in membrane vesicles isolated from Bsep-expressing Sf9 cells; format: functional, cell membranes, Membrane vesicle
[3] = substrate: [H][C@]12CC[C@]3([H])[C@]([H])(CC[C@]4(C)C([C@H](C)CCC(=O)NCCS(=O)(=O)O)CC[C@@]34[H])[C@@]1(C)CC[C@@H](OS(=O)(=O)O)C2; test: (§1) TP_TRANSPORTER: uptake in canalicular membrane vesicles from SD rat; format: functional, cell membranes, Srague-Dawley, Liver, Canalicular membrane vesicle
[4] = substrate: C[C@H](CCC(=O)NCCS(=O)(=O)O)C1CC[C@H]2[C@@H]3[C@H](O)C[C@@H]4C[C@H](OS(=O)(=O)O)CC[C@]4(C)[C@H]3CC[C@]12C; test: as §1; format: functional, cell membranes, Srague-Dawley, Liver, Canalicular membrane vesicle
[5] = substrate: [H][C@]12CC[C@]3([H])[C@]([H])(CC[C@]4(C)C([C@H](C)CCC(=O)NCCS(=O)(=O)O)CC[C@@]34[H])[C@@]1(C)CC[C@@H](OS(=O)(=O)O)C2; test: TP_TRANSPORTER: uptake in membrane vesicles from Mrp2-expressing Sf9 cells; format: functional, cell membranes, Membrane vesicle

Molecule | IC50 [1] [µM] | IC50 [2] [µM] | Km [3] [µM] | Km [4] [µM] | Km [5] [µM]
C[C@H](CCC(=O)NCCS(=O)(=O)O)C1CC[C@H]2[C@@H]3[C@H](O)C[C@@H]4C[C@H](OS(=O)(=O)O)CC[C@]4(C)[C@H]3CC[C@]12C (some centres not stated) [TAUROCHENODEOXYCHOLATE SULFATE] | 4.6 | 67.9 |  |  | 
C[C@H](CCC(=O)NCCS(=O)(=O)O)C1CC[C@H]2[C@@H]3CC[C@@H]4C[C@H](OS(=O)(=O)O)CC[C@]4(C)[C@H]3CC[C@]12C (some centres not stated) | 1.2 | 61.9 |  |  | 
ATP-binding cassette sub-family C member 2 (Rattus norvegicus) (protein) MDKFCNSTFWDLSLLESPEADLPLCFEQTVLVWIPLGFLWLLAPWQLYSVYRSRTKRSSITKFYLAKQVFVVFLLILAAIDLSLALTEDTGQATVPPVRYTNPILYLCTWLLVLAVQHSRQWCVRKNSWFLSLFWILSVLCGVFQFQTLIRALLKDSKSNMAYSYLFFVSYGFQIVLLILTAFSGPSDSTQTPSVTASFLSSITFSWYDRTVLKGYKHPLTLEDVWDIDEGFKTRSVTSKFEAAMTKDLQKARQAFQRRLQKSQRKPEATLHGLNKKQSQSQDVLVLEEAKKKSEKTTKDYPKSWLIKSLFKTFHVVILKSFILKLIHDLLVFLNPQLLKLLIGFVKSSNSYVWFGYICAILMFAVTLIQSFCLQSYFQHCFVLGMCVRTTVMSSIYKKALTLSNLARKQYTIGETVNLMSVDSQKLMDATNYMQLVWSSVIQITLSIFFLWRELGPSILAGVGVMVLLIPVNGVLATKIRNIQVQNMKNKDKRLKIMNEILSGIKILKYFAWEPSFQEQVQGIRKKELKNLLRFGQLQSLLIFILQITPILVSVVTFSVYVLVDSANVLNAEKAFTSITLFNILRFPLSMLPMVTSSILQASVSVDRLERYLGGDDLDTSAIRRVSNFDKAVKFSEASFTWDPDLEATIQDVNLDIKPGQLVAVVGTVGSGKSSLVSAMLGEMENVHGHITIQGSTAYVPQQSWIQNGTIKDNILFGSEYNEKKYQQVLKACALLPDLEILPGGDMAEIGEKGINLSGGQKQRVSLARAAYQDADIYILDDPLSAVDAHVGKHIFNKVVGPNGLLAGKTRIFVTHGIHFLPQVDEIVVLGKGTILEKGSYRDLLDKKGVFARNWKTFMKHSGPEGEATVNNDSEAEDDDDGLIPTMEEIPEDAASLAMRRENSLRRTLSRSSRSSSRRGKSLKNSLKIKNVNVLKEKEKEVEGQKLIKKEFVETGKVKFSIYLKYLQAVGWWSILFIILFYGLNNVAFIGSNLWLSAWTSDSDNLNGTNNSSSHRDMRIGVFGALGLAQGICLLISTLWSIYACRNASKALHGQLLTNILRAPMRFFDTTPTGRIVNRFSGDISTVDDLLPQTLRSWMMCFFGIAGTLVMICMATPVFAIIIIPLSILYISVQVFYVATSRQLRRLDSVTKSPIYSHFSETVTGLPIIRAFEHQQRFLAWNEKQIDINQKCVFSWITSNRWLAIRLELVGNLVVFCSALLLVIYRKTLTGDVVGFVLSNALNITQTLNWLVRMTSEAETNIVAVERISEYINVENEAPWVTDKRPPADWPRHGEIQFNNYQVRYRPELDLVLKGITCNIKSGEKVGVVGRTGAGKSSLTNCLFRILESAGGQIIIDGIDVASIGLHDLRERLTIIPQDPILFSGSLRMNLDPFNKYSDEEVWRALELAHLRSFVSGLQLGLLSEVTEGGDNLSIGQRQLLCLGRAVLRKSKILVLDEATAAVDLETDSLIQTTIRKEFSQCTVITIAHRLHTIMDSDKIMVLDNGKIVEYGSPEELLSNRGSFYLMAKEAGIENVNHTEL |  |  | 1.5 | 8.8 | 3.9
